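Here, GI50 denotes the concentration required for 50% inhibition of growth. At the TGI there is no net growth.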
Key:
Assay in all cases: DTP human tumour cell line panel, 384-well format
786-0 renal = system: 786-0 renal
A549 NSCLC = system: A549 NSCLC
ACHN renal = system: ACHN renal
CCRF-CEM leukemia = system: CCRF-CEM leukemia
COLO 205 colon = system: COLO 205 colon
HCC-2998 colon = system: HCC-2998 colon
HCT-116 colon = system: HCT-116 colon
HCT-15 colon = system: HCT-15 colon
HL-60(TB) leukemia = system: HL-60(TB) leukemia
HOP-62 NSCLC = system: HOP-62 NSCLC
HOP-92 NSCLC = system: HOP-92 NSCLC
HS 578T breast = system: HS 578T breast
IGROV1 ovarian = system: IGROV1 ovarian
K-562 leukemia = system: K-562 leukemia
KM12 colon = system: KM12 colon
M14 melanoma = system: M14 melanoma
MALME-3M melanoma = system: MALME-3M melanoma
MCF7 breast = system: MCF7 breast
MDA-MB-231 breast = system: MDA-MB-231 breast
MDA-MB-435 melanoma = system: MDA-MB-435 melanoma
MDA-MB-468 breast = system: MDA-MB-468 breast
MOLT-4 leukemia = system: MOLT-4 leukemia
NCI-H226 lung = system: NCI-H226 lung
NCI-H322M lung = system: NCI-H322M lung
NCI/ADR-RES ovarian = system: NCI/ADR-RES ovarian
OVCAR-3 ovarian = system: OVCAR-3 ovarian
OVCAR-4 ovarian = system: OVCAR-4 ovarian
OVCAR-5 ovarian = system: OVCAR-5 ovarian
OVCAR-8 ovarian = system: OVCAR-8 ovarian
PC-3 prostate = system: PC-3 prostate
RPMI-8226 leukemia = system: RPMI-8226 leukemia
SF-268 CNS = system: SF-268 CNS
SF-295 CNS = system: SF-295 CNS
SK-MEL-2 melanoma = system: SK-MEL-2 melanoma
SK-MEL-28 melanoma = system: SK-MEL-28 melanoma
SK-MEL-5 melanoma = system: SK-MEL-5 melanoma
SK-OV-3 ovarian = system: SK-OV-3 ovarian
SN12C renal = system: SN12C renal
SNB-19 CNS = system: SNB-19 CNS
SNB-75 CNS = system: SNB-75 CNS
SR leukemia = system: SR leukemia
SW-620 colon = system: SW-620 colon
T-47D breast = system: T-47D breast
TK-10 renal = system: TK-10 renal
UACC-257 melanoma = system: UACC-257 melanoma
UACC-62 melanoma = system: UACC-62 melanoma
UO-31 renal = system: UO-31 renal

Question: What does the source list for `Cc1cc(C)c(CNC(=O)c2cc(-c3ccc(CN4CCOCC4)cc3)cc3c2cnn3C2CCCC2)c(=O)[nH]1`?
Answer: GI50 ([…]-0 renal): 5.82 µM; TGI (786-0 renal): 16.9 µM; GI50 (A549 NSCLC): 6.65 µM; TGI (A549 NSCLC): 17.7 µM; GI50 (ACHN renal): 10.3 µM; TGI (ACHN renal): 23.9 µM; GI50 (CCRF-CEM leukemia): 3.42 µM; TGI (CCRF-CEM leukemia): 8.99 µM; GI50 (COLO 205 colon): 8.25 µM; TGI (COLO 205 colon): 20.5 µM; GI50 (HCC-2998 colon): 6.61 µM; TGI (HCC-2998 colon): 17.7 µM; GI50 (HCT-116 colon): 7.13 µM; TGI (HCT-116 colon): 19.5 µM; GI50 (HCT-15 colon): 3.03 µM; TGI (HCT-15 colon): 11.6 µM; GI50 (HL-60(TB) leukemia): 4.13 µM; TGI (HL-60(TB) leukemia): 12.6 µM; GI50 (HOP-62 NSCLC): 6.39 µM; TGI (HOP-62 NSCLC): 17.4 µM; GI50 (HOP-92 NSCLC): 6.29 µM; TGI (HOP-92 NSCLC): 17.1 µM; GI50 (HS 578T breast): 2.92 µM; TGI (HS 578T breast): 7.44 µM; GI50 (IGROV1 ovarian): 1.02 µM; TGI (IGROV1 ovarian): 25 µM; GI50 (K-562 leukemia): 4.84 µM; TGI (K-562 leukemia): 16.5 µM; GI50 (KM12 colon): 8.88 µM; TGI (KM12 colon): 21.7 µM; GI50 (M14 melanoma): 6.87 µM; TGI (M14 melanoma): 17.6 µM; GI50 (MALME-3M melanoma): 5.49 µM; TGI (MALME-3M melanoma): 15.9 µM; GI50 (MCF7 breast): 6.19 µM; TGI (MCF7 breast): 17.8 µM; GI50 (MDA-MB-231 breast): 8.35 µM; TGI (MDA-MB-231 breast): 21.4 µM; GI50 (MDA-MB-435 melanoma): 12 µM; TGI (MDA-MB-435 melanoma): 25.3 µM; GI50 (MDA-MB-468 breast): 0.0189 µM; TGI (MDA-MB-468 breast): 0.0459 µM; GI50 (MOLT-4 leukemia): 3.02 µM; TGI (MOLT-4 leukemia): 7.94 µM; GI50 (NCI-H226 lung): 12.9 µM; TGI (NCI-H226 lung): 25.9 µM; GI50 (NCI-H322M lung): 12.1 µM; TGI (NCI-H322M lung): 24.8 µM; GI50 (NCI/ADR-RES ovarian): 11.6 µM; TGI (NCI/ADR-RES ovarian): 24 µM; GI50 (OVCAR-3 ovarian): 4.83 µM; TGI (OVCAR-3 ovarian): 17.5 µM; GI50 (OVCAR-4 ovarian): 12.9 µM; TGI (OVCAR-4 ovarian): 25.8 µM; GI50 (OVCAR-5 ovarian): 13.1 µM; TGI (OVCAR-5 ovarian): 26 µM; GI50 (OVCAR-8 ovarian): 11 µM; TGI (OVCAR-8 ovarian): 23.3 µM; GI50 (PC-3 prostate): 8.37 µM; TGI (PC-3 prostate): 20.8 µM; GI50 (RPMI-8226 leukemia): 2.11 µM; TGI (RPMI-8226 leukemia): 6.54 µM; GI50 (SF-268 CNS): 6.37 µM; TGI (SF-268 CNS): 13.6 µM; GI50 (SF-295 CNS): 12 µM; TGI (SF-295 CNS): 24.6 µM; GI50 (SK-MEL-2 melanoma): 13 µM; TGI (SK-MEL-2 melanoma): 25.7 µM; GI50 (SK-MEL-28 melanoma): 9.62 µM; TGI (SK-MEL-28 melanoma): 21.9 µM; GI50 (SK-MEL-5 melanoma): 5.47 µM; TGI (SK-MEL-5 melanoma): 13.9 µM; GI50 (SK-OV-3 ovarian): 13.4 µM; TGI (SK-OV-3 ovarian): 26.4 µM; GI50 (SN12C renal): 12.3 µM; TGI (SN12C renal): 24.9 µM; GI50 (SNB-19 CNS): 9.84 µM; TGI (SNB-19 CNS): 23.4 µM; GI50 (SNB-75 CNS): 7.97 µM; TGI (SNB-75 CNS): 21.2 µM; GI50 (SR leukemia): 2.41 µM; TGI (SR leukemia): 5.85 µM; GI50 (SW-620 colon): 13.2 µM; TGI (SW-620 colon): 26.3 µM; GI50 (T-47D breast): 0.986 µM; TGI (T-47D breast): 10.6 µM; GI50 (TK-10 renal): 0.968 µM; TGI (TK-10 renal): 21.9 µM; GI50 (UACC-257 melanoma): 2.23 µM; TGI (UACC-257 melanoma): 4.96 µM; GI50 (UACC-62 melanoma): 12.3 µM; TGI (UACC-62 melanoma): 24.9 µM; GI50 (UO-31 renal): 5.87 µM; TGI (UO-31 renal): 20.6 µM

Source: PubChem BioAssay (NCI)
